Reference: PubChem BioAssay AID2060905 (Molecular Pharmacology Branch, DTP, NCI, 2025)
pIC50: −log10 of the molar value. Each block holds one compound with its values, some of them ahead of it.

Tested on: 282377-053-R-J1-PDC complex spheroid viability
Test: Anticancer human tumor 282377-053-R-J1-PDC patient-derived colon adenocarcinoma cell line growth inhibition [RAS]
Details: for pIC50: curve of first compound; for viability, T/C: stronger effect = lower value
How it was run: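 Multi-cell-type spheroids: tumor cells plus HUVEC endothelial cells and mesenchymal stem cells. RAS-pathway inhibitors were combined with targeted agents, each dosed in half-log steps down from clinical Cmax, or from 10 microM when Cmax was unknown.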

[1] = second compound 0.000949 µM, first compound 0.0316 µM
[2] = second compound 0.000949 µM, first compound 0.1 µM
[3] = second compound 0.000949 µM, first compound 0.316 µM
[4] = second compound 0.000949 µM, first compound 1 µM
[5] = second compound 0.000949 µM, first compound 3.16 µM
[6] = second compound 0.000949 µM, first compound 10 µM
[7] = second compound 0.003 µM, first compound 0.0316 µM
[8] = second compound 0.003 µM, first compound 0.1 µM
[9] = second compound 0.003 µM, first compound 0.316 µM
[10] = second compound 0.003 µM, first compound 1 µM
[11] = second compound 0.003 µM, first compound 3.16 µM
[12] = second compound 0.003 µM, first compound 10 µM
[13] = second compound 0.00949 µM, first compound 0.0316 µM
[14] = second compound 0.00949 µM, first compound 0.1 µM
[15] = second compound 0.00949 µM, first compound 0.316 µM
[16] = second compound 0.00949 µM, first compound 1 µM
[17] = second compound 0.00949 µM, first compound 3.16 µM
[18] = second compound 0.00949 µM, first compound 10 µM
[19] = second compound 0.03 µM, first compound 0.0316 µM
[20] = second compound 0.03 µM, first compound 0.1 µM
[21] = second compound 0.03 µM, first compound 0.316 µM
[22] = second compound 0.03 µM, first compound 1 µM
[23] = second compound 0.03 µM, first compound 3.16 µM
[24] = second compound 0.03 µM, first compound 10 µM
[25] = second compound 0.0949 µM, first compound 0.0316 µM
[26] = second compound 0.0949 µM, first compound 0.1 µM
[27] = second compound 0.0949 µM, first compound 0.316 µM
[28] = second compound 0.0949 µM, first compound 1 µM
[29] = second compound 0.0949 µM, first compound 3.16 µM
[30] = second compound 0.0949 µM, first compound 10 µM
[31] = second compound 0.3 µM, first compound 0.0316 µM
[32] = second compound 0.3 µM, first compound 0.1 µM
[33] = second compound 0.3 µM, first compound 0.316 µM
[34] = second compound 0.3 µM, first compound 1 µM
[35] = second compound 0.3 µM, first compound 3.16 µM
[36] = second compound 0.3 µM, first compound 10 µM
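Further: spheroids exposed to agents for seven days before readout.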
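Wherever viability, T/C is given: luminescence viability as percent of DMSO vehicle control wells.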

pIC50 (second compound 0.000949 µM): 5.16
pIC50 (second compound 0.003 µM): 5.15
pIC50 (second compound 0.00949 µM): 5.15
pIC50 (second compound 0.03 µM): 5.16
pIC50 (second compound 0.0949 µM): 5.14
pIC50 (second compound 0.3 µM): 5.16
Structure (SMILES): CC1(O)CCCC1n1c(=O)c(C(F)F)cc2cnc(NC3CCN(S(C)(=O)=O)CC3)nc21 (centres undefined) + CCn1c(-c2cccnc2C(C)OC)c2c3cc(ccc31)N1CCOC(CC(NC(=O)C(C(C)C)N(C)C(=O)C3(F)CCN(C(=O)C#CC(C)(C)N(C)C)CC3)C(=O)N3CCCC(N3)C(=O)OCC(C)(C)C2)C1
viability, T/C [1]: 118%
viability, T/C [2]: 112%
viability, T/C [3]: 171%
viability, T/C [4]: 144%
viability, T/C [5]: 159%
viability, T/C [6]: 6.67%
viability, T/C [7]: 129%
viability, T/C [8]: 128%
viability, T/C [9]: 140%
viability, T/C [10]: 131%
viability, T/C [11]: 218%
viability, T/C [12]: 8.84%
viability, T/C [13]: 122%
viability, T/C [14]: 97%
viability, T/C [15]: 153%
viability, T/C [16]: 156%
viability, T/C [17]: 199%
viability, T/C [18]: 8.76%
viability, T/C [19]: 105%
viability, T/C [20]: 111%
viability, T/C [21]: 153%
viability, T/C [22]: 159%
viability, T/C [23]: 165%
viability, T/C [24]: 7.79%
viability, T/C [25]: 121%
viability, T/C [26]: 120%
viability, T/C [27]: 201%
viability, T/C [28]: 181%
viability, T/C [29]: 214%
viability, T/C [30]: 5.91%
viability, T/C [31]: 111%
viability, T/C [32]: 129%
viability, T/C [33]: 146%
viability, T/C [34]: 155%
viability, T/C [35]: 158%
viability, T/C [36]: 6.46%

pIC50 (second compound 0.000949 µM): 5.76
pIC50 (second compound 0.003 µM): 5.78
pIC50 (second compound 0.00949 µM): 5.75
pIC50 (second compound 0.03 µM): 5.73
pIC50 (second compound 0.0949 µM): 5.79
pIC50 (second compound 0.3 µM): 5.75
Structure (SMILES): CCC(CC)c1cc(NC2CCC(N)C2)n2nccc2n1 (centres undefined) + CCn1c(-c2cccnc2C(C)OC)c2c3cc(ccc31)N1CCOC(CC(NC(=O)C(C(C)C)N(C)C(=O)C3(F)CCN(C(=O)C#CC(C)(C)N(C)C)CC3)C(=O)N3CCCC(N3)C(=O)OCC(C)(C)C2)C1
viability, T/C [1]: 98.1%
viability, T/C [2]: 105%
viability, T/C [3]: 81.3%
viability, T/C [4]: 87%
viability, T/C [5]: 8.86%
viability, T/C [6]: 3.59%
viability, T/C [7]: 86.3%
viability, T/C [8]: 105%
viability, T/C [9]: 79.4%
viability, T/C [10]: 81.4%
viability, T/C [11]: 10.8%
viability, T/C [12]: 3.49%
viability, T/C [13]: 114%
viability, T/C [14]: 93.9%
viability, T/C [15]: 99%
viability, T/C [16]: 89%
viability, T/C [17]: 9.93%
viability, T/C [18]: 2.98%
viability, T/C [19]: 81.2%
viability, T/C [20]: 111%
viability, T/C [21]: 102%
viability, T/C [22]: 95.3%
viability, T/C [23]: 10.7%
viability, T/C [24]: 4.2%
viability, T/C [25]: 96.8%
viability, T/C [26]: 110%
viability, T/C [27]: 89.8%
viability, T/C [28]: 77.4%
viability, T/C [29]: 11.2%
viability, T/C [30]: 4.78%
viability, T/C [31]: 112%
viability, T/C [32]: 90.2%
viability, T/C [33]: 95%
viability, T/C [34]: 87.6%
viability, T/C [35]: 12.6%
viability, T/C [36]: 4.08%
